Data reported in paper PMC5531494, “Target specificity, in vivo pharmacokinetics, and efficacy of the putative STAT3 inhibitor LY5 in osteosarcoma, Ewing's sarcoma, and rhabdomyosarcoma” (PLoS ONE, 2017).

Key:
[1] = tested on: MG63.3 cells; assay: Ex vivo pulmonary metastasis assay (PuMA); type: cell-based, human; conditions: MG 63.3, 10 μM and 50 μM LY5, up to 21 days
Description: (§1) GFP-positive K7M2 and MG63.3 cells (3 x 10^5 MG63.3; 5 x 10^5 K7M2) were administered via tail vein injection into mice. Following humane euthanasia, the lungs were insufflated with a culture medium/agarose mixture to a constant hydrostatic pressure of 20 cm H2O and prepared for ex vivo culture as previously described. Lung sections were cultured in complete media containing LY5 (0, 0.1, 1, 10 or 50 μM) on sterile Gelfoam using 6 lung sections per treatment condition. Media was changed every 48 hrs and lung slices were imaged with a fluorescent microscope every 7 days for a total of 21 days.
(§2) MG63.3 and K7M2 cell lines were exposed to increasing concentrations of LY5 to determine the IC50 (A). Western blot analysis was performed to determine the dose and duration of LY5 exposure required to inhibit STAT3 phosphorylation (B-C). Serial imaging of fluorescently labeled MG63.3 and K7M2 cells was performed in ex vivo LY5 treated lung sections (D). Metastatic burden was quantified by evaluation of the percent tumor burden (mean normalized fluorescent area). Data are reported as the mean ± standard deviation. In MG 63.3 experiment, p < 0.0001 Kruskal-Wallis test, p < 0.05 10 μM vs control at days 7, 14, and 21, 10 μM vs 1 μM at days 7, 14, and 21, 50 μM vs control at days 7, 14, and 21, and 50 μM vs 10 μM at days 7, 14, and 21 post-test Dunn. […]

[2] = tested on: ES-6 cells; assay: Alamar Blue cell viability assay; type: cell-based; conditions: Homo sapiens; ES-6, 96 hours
Description: (§3) Sarcoma cell lines were seeded in 24-well plates in 1X RPMI medium containing 10% fetal bovine serum. Cells were then incubated with DMSO (control) or concentrations of LY5 ranging from 10 nM to 10 μM for 96 hrs. At the end of the incubation period, Alamar Blue (Invitrogen, Carlsbad, CA) was added to cells at one-tenth the volume of the cell culture medium and incubated for 3 hrs at 37° C in the dark. Fluorescence was then measured at an excitation/emissions wavelength of 570/590 nm and emission wavelength of 590 nm.
(§4) Fig 2 Biologic activity of LY5 in sarcoma cell lines. Dose response curves for LY5: RMS cell lines (RH30, RD, JR-1), ES cell lines (ES-3, ES-6, ES-7, ES-8), and an OS cell line (OS-17) were treated with LY5 (concentrations ranging from 10 nM to 10 μM) for 96 hours. Cell viability was determined using Alamar Blue staining. IC50 values are indicated for each cell line. Analyses were performed in triplicate and data are plotted as means ± standard deviation.

[3] = tested on: ES-8 cells; assay: Alamar Blue cell viability assay; type: cell-based; conditions: Homo sapiens, ES8; ES-8, 96 hours
Description: as §3, §4

[4] = tested on: RD cells; assay: Alamar Blue cell viability assay; type: cell-based; conditions: Homo sapiens, 96 hours
Description: as §3, §4

[5] = tested on: JR-1 cells; assay: Alamar Blue cell viability assay; type: cell-based; conditions: Homo sapiens; JR-1, 96 hours
Description: as §3, §4

[6] = tested on: RH30 cells; assay: Alamar Blue cell viability assay; type: cell-based; conditions: Homo sapiens; RH30, 96 hours
Description: as §3, §4

[7] = tested on: OS-17 cells; assay: Alamar Blue cell viability assay; type: cell-based; conditions: Homo sapiens; OS-17, 96 hours
Description: as §3, §4

[8] = tested on: ES-3 cells; assay: Alamar Blue cell viability assay; type: cell-based; conditions: Homo sapiens; ES-3, 96 hours
Description: as §3, §4

[9] = tested on: ES-7 cells; assay: Alamar Blue cell viability assay; type: cell-based; conditions: Homo sapiens, ES7; ES-7, 96 hours
Description: as §3, §4

[10] = biological target: T1, STAT3 (Homo sapiens, UniProt P40763); assay: Western blot of basal p-STAT3 (Tyr705) in sarcoma cell lines RH30, EW8, RD; type: cell-based; set-up: endogenous in cells; conditions: ES, OS and RMS cells, RH30, EW8, RD treated 30 minutes
T1 sequence (P40763 whole entry): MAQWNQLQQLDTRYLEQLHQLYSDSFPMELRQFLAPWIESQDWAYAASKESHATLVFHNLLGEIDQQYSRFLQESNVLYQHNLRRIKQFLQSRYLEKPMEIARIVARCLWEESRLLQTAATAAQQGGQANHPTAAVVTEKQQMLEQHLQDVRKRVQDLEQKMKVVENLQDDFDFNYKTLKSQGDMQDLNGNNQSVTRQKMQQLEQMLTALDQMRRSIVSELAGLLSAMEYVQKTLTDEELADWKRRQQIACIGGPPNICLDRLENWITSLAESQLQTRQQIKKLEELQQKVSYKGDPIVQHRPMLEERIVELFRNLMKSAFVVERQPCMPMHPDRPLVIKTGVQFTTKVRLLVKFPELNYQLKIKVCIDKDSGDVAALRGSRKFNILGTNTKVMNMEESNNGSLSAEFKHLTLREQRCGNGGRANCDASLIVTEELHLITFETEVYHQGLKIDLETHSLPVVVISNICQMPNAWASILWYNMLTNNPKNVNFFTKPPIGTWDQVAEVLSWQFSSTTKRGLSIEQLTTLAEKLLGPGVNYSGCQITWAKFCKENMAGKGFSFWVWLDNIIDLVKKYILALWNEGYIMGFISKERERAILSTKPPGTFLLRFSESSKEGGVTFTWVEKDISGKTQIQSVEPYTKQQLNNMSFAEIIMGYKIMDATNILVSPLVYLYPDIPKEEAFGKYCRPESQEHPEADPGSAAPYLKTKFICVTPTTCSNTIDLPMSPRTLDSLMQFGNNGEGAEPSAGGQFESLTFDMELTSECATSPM
Description: (§5) Cell lysis, protein isolation and immunoblotting were performed as described previously. Twenty micrograms of protein were resolved using 4–12% Bis-Tris polyacrylamide gels. Gels were transferred to PVDF membranes and subjected to blocking and incubation with primary and secondary antibodies. The primary antibodies used in this study included: phospho-STAT3 (Tyr705, Cell Signaling, Boston, MA and Abcam, Cambridge, MA), total STAT3 (Cell Signaling and Abcam), phospho-STAT1 (Cell Signaling), total STAT1 (Cell Signaling), phospho-STAT2 (Cell Signaling), phospho-STAT4 (Cell Signaling), phospho-STAT6 (Cell Signaling), and GAPDH (Cell Signaling). Protein bands were detected using Western Lightning ® Plus Enhanced Chemiluminescence substrate (Perkin Elmer, Waltham, MA) and HyBlot CL ® Autoradiography film (Denville Scientific, Holliston, MA). The cytokines used in this study included: interferon gamma (IFN-γ, Cell Signaling), interferon alpha (IFN-α, Cell Signaling), interleukin-4 (IL-4, Cell Signaling), interleukin-6 (IL-6, Cell Signaling), and oncostatin M (OSM, Cell Signaling).
(§6) Fig 1 LY5 inhibits pSTAT3 in sarcoma cell lines. (A) The tumor cell lines RH30, EW8, and RD were treated with increasing concentrations of LY5 for 30 minutes. Cell lysates were collected for Western blotting of p-STAT3, total STAT3, and GAPDH. GAPDH was used as loading control. […]

[11] = tested on: human rhabdomyosarcoma cell lines RD, JR-1, and RH30; assay: Alamar Blue cell viability assay, rhabdomyosarcoma panel; type: cell-based; conditions: range over RD, JR-1, RH30
Description: as §3, §4

[12] = tested on: ES and OS cells; assay: Alamar Blue cell viability assay, ES and OS panel; type: cell-based; conditions: Homo sapiens; range over ES and OS cells
Description: as §3, §4

[13] = Protein binding in mice; type: in vitro ADME
[14] = tested on: K7M2 cells; assay: Ex vivo pulmonary metastasis assay (PuMA); type: cell-based, murine; conditions: K7M2, 10 μM LY5 only
Description: as §1, §2

[15] = biological target: T1, STAT3; assay: IL-6 / OSM induced STAT3 phosphorylation in SJSA cells, Western blot; type: cell-based; set-up: endogenous in cells; conditions: LY5 two hours then 50 ng/mL cytokine 30 minutes
Description: as §5, §6

Structure (SMILES): NS(=O)(=O)c1cccc2c1C(=O)C=C(Nc1cccnc1)C2=O [LY5, 5,8-dioxo-6-(pyridin-3-ylamino)-5,8-dihydronaphthalene-1-sulfonamide]
- percent tumor burden in PuMA [1]: significantly decreased
- IC50 [2]: 5060 nM
- IC50 [3]: 2000 nM
- IC50 [4]: 204 nM
- IC50 [5]: 271 nM
- IC50 [6]: 428 nM
- IC50 [7]: 1430 nM
- IC50 [8]: 3420 nM
- IC50 [9]: 2150 nM
- basal STAT3 phosphorylation at Tyr705 [10]: inhibited basal STAT3 phosphorylation
- IC50 [11]: 200 to 400 nM
- IC50 [12]: 1400 to 5100 nM
- drug protein-bound [13]: Approximately 90%
- tumor burden in PuMA [14]: reduction
- IL-6 and OSM induced STAT3 phosphorylation [15]: effectively blocked
